In patent US20070059773A1, “Identification of therapeutic compounds” (priority 2003, published 2007):
In brackets after ≈: the same amount, converted by molar mass. Read-outs that look alike come from different tables or passages of the source. Each block holds one compound with its values, some of them ahead of it.

Columns and labels:
rat cortex A1 receptor = target: T1, rat cortex A1 receptor (Rattus norvegicus, UniProt P25099); test: Displacement of 3H-DPCPX from the rat cortex A1 receptor; assay type: binding
T1 construct: from tissue; host or cells: rat cortex
T1 sequence (P25099 1-326): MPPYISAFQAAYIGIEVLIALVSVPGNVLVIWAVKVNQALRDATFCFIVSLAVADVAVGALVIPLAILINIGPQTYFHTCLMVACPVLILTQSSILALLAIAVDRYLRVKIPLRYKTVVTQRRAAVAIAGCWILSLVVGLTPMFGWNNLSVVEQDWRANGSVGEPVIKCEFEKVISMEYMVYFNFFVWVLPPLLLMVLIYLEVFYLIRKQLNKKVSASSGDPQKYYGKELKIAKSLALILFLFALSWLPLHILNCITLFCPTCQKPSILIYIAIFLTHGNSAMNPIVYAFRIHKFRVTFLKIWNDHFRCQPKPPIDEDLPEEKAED

[1] = target: T2, rat striatal A2A receptor (Rattus norvegicus, UniProt P30543); conditions: for number of affinity states revealed: Tables 1 and 2; for number of affinity states revealed / effect of GTP on the high affinity states: lower pH; for high affinity states as proportion of the total number of binding sites: lower pH (5.5); for effect of GTP on the high affinity states: presence of GTP
T2 sequence (P30543 whole entry): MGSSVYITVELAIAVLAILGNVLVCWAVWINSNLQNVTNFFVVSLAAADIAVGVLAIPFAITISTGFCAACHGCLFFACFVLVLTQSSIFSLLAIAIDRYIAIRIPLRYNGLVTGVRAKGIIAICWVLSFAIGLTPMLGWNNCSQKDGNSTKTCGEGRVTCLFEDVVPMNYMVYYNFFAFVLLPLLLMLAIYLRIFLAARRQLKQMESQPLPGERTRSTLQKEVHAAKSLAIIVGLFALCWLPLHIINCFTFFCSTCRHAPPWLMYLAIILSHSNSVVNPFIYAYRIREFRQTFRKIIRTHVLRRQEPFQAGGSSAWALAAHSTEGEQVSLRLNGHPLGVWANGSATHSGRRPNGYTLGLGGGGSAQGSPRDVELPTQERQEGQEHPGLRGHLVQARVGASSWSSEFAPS

[2] = target: T2, rat striatal A2A receptor; test: biochemical
[3] = tested on: carrageenan (CGN) induced thermal hyperalgesia; test: Carrageenan induced thermal hyperalgesia (paw withdrawal latency); assay type: in vivo; conditions: 0.6 mg/kg, given with carrageenan; compared with indomethacin 3 mg/kg po
Protocol: Carrageenan (2%, 10 microlitres) was administered into the right hind paw. A heat source was placed close to the treated and untreated hind paws, and the difference in the paw withdrawal latencies is shown. 2-methoxyadenosine was administered at the same time as carrageenan.

[4] = Blood pressure and heart rate by implanted radiotelemetry; assay type: in vivo; conditions: 0.624 mg/kg p.o., rat
Protocol: An implantable radiotelemetry device was placed in the abdominal cavity of 6 rats per group. The pressure catheter of the device was inserted in the abdominal aorta and two electrodes tunnelised under the skin in a lead II position (left side of abdominal cavity/right shoulder). Individual rats were placed in their own cage on a radioreceptor (DSI) for data acquisition. The effect of 0.6 mg/kg 2 methoxyadenosine or vehicle (p.o.) on blood pressure was then assessed. The results are shown in FIG. 5: A: blood pressure; B: heart rate.

adenosine A2A receptor = conditions: cited from earlier work
[5] = Plasma concentration after administration; conditions: rat, in vivo
[6] = 20 mg/kg po; cited from earlier work
[7] = tested on: thermal hyperalgesia caused by chronic constriction injury of the rat sciatic nerve; test: Chronic constriction injury model of neuropathic pain; assay type: in vivo; conditions: 0.624 mg/kg p.o., compared with carbamazepine 100 mg/kg s.c.
From the text: After approximately two weeks the rats developed thermal hyperalgesia in the operated leg as judged by the difference in paw withdrawal latencies of the right and left paws.

[8] = tested on: carrageenan (CGN) induced inflammation; test: Carrageenan induced inflammation (paw volume by plethysmometry); assay type: in vivo; conditions: 62.4 and 624 μg/kg i.p.; compared with indomethacin 3 mg/kg po
Protocol: Carrageenan (2%, 10 microlitres) was administered into the right hind paw, and the paw volume assessed by plethysomometry. 2-methoxyadenosine was administered at the same time as carrageenan.

[9] = tested on: carageenan-induced inflammation; conditions: rats, 20 mg/kg po; cited from earlier work
human A2A receptor = target: T3, human A2A receptor (Homo sapiens, UniProt P29274); test: cAMP accumulation in HEK293 cells expressing the human A2A receptor; assay type: cell-based
T3 construct: expressed in transfected cells; host or cells: HEK293
T3 sequence (P29274 whole entry): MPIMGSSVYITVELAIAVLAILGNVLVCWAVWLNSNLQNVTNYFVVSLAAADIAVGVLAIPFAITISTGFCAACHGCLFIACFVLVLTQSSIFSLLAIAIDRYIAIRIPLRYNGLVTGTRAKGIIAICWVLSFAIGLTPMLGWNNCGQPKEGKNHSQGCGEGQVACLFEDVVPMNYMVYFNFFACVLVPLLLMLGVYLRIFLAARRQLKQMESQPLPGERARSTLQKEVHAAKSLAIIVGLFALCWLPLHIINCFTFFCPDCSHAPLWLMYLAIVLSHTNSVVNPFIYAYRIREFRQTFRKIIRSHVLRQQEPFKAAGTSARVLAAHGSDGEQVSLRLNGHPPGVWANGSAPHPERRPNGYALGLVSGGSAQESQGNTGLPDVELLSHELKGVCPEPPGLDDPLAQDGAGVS
From the text: The human A2A receptor was expressed in HEK293 cells, and the ability of agonists to stimulate cAMP accumulation assessed in the presence of rolipram to inhibit phosphodiesterase enzymes.

human A1 receptor = target: T4, human A1 receptor (Homo sapiens, UniProt P30542); test: Displacement of [3H]-DPCPX from the human A1 receptor; assay type: binding; conditions: read-out: Ki high affinity sites
T4 sequence (P30542 1-326): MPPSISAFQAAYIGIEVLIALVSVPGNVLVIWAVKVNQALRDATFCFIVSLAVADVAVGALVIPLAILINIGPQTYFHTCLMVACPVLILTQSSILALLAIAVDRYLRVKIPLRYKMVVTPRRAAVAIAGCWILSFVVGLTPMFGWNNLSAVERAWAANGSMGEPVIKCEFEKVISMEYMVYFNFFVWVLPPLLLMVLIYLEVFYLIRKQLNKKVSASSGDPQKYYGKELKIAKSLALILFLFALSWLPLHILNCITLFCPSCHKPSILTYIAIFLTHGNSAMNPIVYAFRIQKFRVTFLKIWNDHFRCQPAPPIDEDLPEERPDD
From the text: Compounds that show a decrease in efficacy are likely to act as low efficacy partial agonists.

[10] = tested on: isolated perfused superior mesenteric arterial bed of the rat; conditions: pH of the perfusate reduced to 6.8; cited from earlier work
[11] = pH 6.2, read-out: Ki High affinity
[12] = pH 6.2, read-out: Ki Low affinity
[13] = pH 7.4, read-out: Ki High affinity
[14] = pH 7.4, read-out: Ki Low affinity

SMILES: Nc1nc(Cl)nc2c1ncn2[C@@H]1O[C@H](CO)[C@@H](O)[C@H]1O [2-chloroadenosine, reference compound]
Ki (rat cortex A1 receptor; [11]): 3.7 nM
Ki (rat cortex A1 receptor; [12]): 1660 nM
Ki (rat cortex A1 receptor; [13]): 4.4 nM
Ki (rat cortex A1 receptor; [14]): 1670 nM

SMILES: CCOc1nc(N)c2ncn([C@@H]3O[C@H](CO)[C@@H](O)[C@H]3O)c2n1 [2-ethoxyadenosine]
number of affinity states revealed [1]: two apparent affinity states
high affinity states as proportion of the total number of binding sites [1]: approximately 25%
effect of GTP on the high affinity states [1]: abolished
Ki ([2]; Ki High affinity, pH 5.5): 2.8 nM
Ki ([2]; Ki High affinity, pH 7.4): 245 nM
Ki ([2]; Ki Low affinity, pH 5.5): 1200 nM
Ki ([2]; Ki Low affinity, pH 7.4): 6600 nM

SMILES: COc1nc(N)c2ncn([C@@H]3O[C@H](CO)[C@@H](O)[C@H]3O)c2n1 [2-methoxyadenosine]
carrageenan induced thermal hyperalgesia [3]: inhibits
effect on blood pressure [4]: no Significant Effect
effect on heart rate [4]: no Significant Effect
EC50 (adenosine A2A receptor; Daly et al. 1993, read-out: EC50 at the adenosine A2A receptor): 3000 nM
EC50 at adenosine receptors (adenosine A2A receptor; measured at pH7.4): 0.9 µg/mL (≈ 3.03 µM)
EC50 (adenosine A2A receptor; measured at pH7.4, read-out: EC50 at adenosine receptors): 3000 nM
number of affinity states revealed [1]: two apparent affinity states
high affinity states as proportion of the total number of binding sites [1]: approximately 25%
Ki High affinity ([1]; pH 7.4): High affinity not detectable
change of affinity as the pH is reduced ([1]; pH from 7.4 to 7.0 to 6.8, FIG. 2): increases as the pH is reduced
effect of GTP on the high affinity states [1]: abolished
plasma concentration with profound anti-hyperalgesic and anti-inflammatory activity [5]: ≤ 0.2 µM
reduction in heart rate [6]: 25%
reduction in mean blood pressure [6]: 41%
thermal hyperalgesia, chronic constriction injury [7]: inhibits
carrageenan induced inflammation (paw volume) [8]: Inhibits
inhibition of carageenan-induced inflammation [9]: 25%
efficacy at pH7.0 compared to pH7.4 (human A2A receptor; cAMP accumulation in the presence of rolipram): Increased
increase in efficacy at the adenosine A2A receptor (human A2A receptor; pH7.0 compared to pH7.4, FIG. 3): approximately 100 fold
Ki ([2]; Ki High affinity, pH 5.5): 12.1 nM
Ki ([2]; Ki Low affinity, pH 5.5): 1200 nM
Ki ([2]; Ki Low affinity, pH 7.4): 2500 nM

SMILES: Nc1ncnc2c1ncn2[C@@H]1O[C@H](CO)[C@@H](O)[C@H]1O [adenosine]
enhancement of dilator responses [10]: 10 fold

Continued, values first:

effect of GppNHp on the high affinity state (rat cortex A1 receptor; both pH values (7.4 and 6.2)): abolished
Ki (rat cortex A1 receptor; [11]): 17 nM
Ki (rat cortex A1 receptor; [12]): 13400 nM
Ki (rat cortex A1 receptor; [13]): 227 nM
Ki (rat cortex A1 receptor; [14]): 11500 nM
SMILES: Nc1nc(Cl)nc2c1ncn2[C@@H]1O[C@H](CO)C[C@H]1O [3′-deoxy-2-chloroadenosine]

Ki (human A1 receptor; pH 6.2): 405 ± 114 nM
Ki (human A1 receptor; pH 7.4): 158 ± 85 nM
SMILES: COc1nc(N)c2ncn([C@@H]3O[C@H](CO)C[C@H]3O)c2n1 [3′-deoxy-2-methoxyadenosine]

Ki ([2]; Ki, pH5.5, one affinity state): 35 ± 9 nM
Ki ([2]; Ki, pH 7.4, one affinity state): 170 ± 20 nM
SMILES: Nc1nc(Nc2ccccc2)nc2c1ncn2[C@@H]1O[C@H](CO)[C@@H](O)[C@H]1O [CV1808, 2-phenylamino-adenosine, reference compound]
